Test [1] has as its system anti-OVA-specific IgG2a subclass antibody. In words: Adjuvant activity test: anti-OVA-specific IgG2a subclass antibody in serum of OVA-immunized mice (ELISA). In kind it is in vivo, BALB/c mice. As to conditions: after secondary immunization, serum 2 weeks later; OVA 5 μg + compound 0.256 μmol in 5% αCD-added saline (Addavax mixed with saline at 1:1), dorsal-subcutaneous; compared to OVA single administration group. Here is the method: (§1) 8-Week-old female BALB/c mice were divided into groups (N=6), and each group was primarily immunized by dorsal-subcutaneous administration of (1) ovalbumin (OVA) (5 μg) dissolved in saline as an antigen (OVA single administration group), (2) OVA 5 μg and Addavax™ (mixed with saline at 1:1) dissolved in saline (Addavax™ administration group) as positive control adjuvant, (3) OVA 5 μg and SZ137 0.256 μmol dissolved or dispersed in 5% α-cyclodextrin (hereinafter to be simply referred to as αCD)-added saline (SZ137 administration group), (4) OVA (5 μg) and SZ138 (0.256 μmol) dissolved or dispersed in 5% αCD-added saline (SZ138 administration group), (5) OVA (5 μg) and SZ142 (0.256 μmol) dissolved or dispersed in 5% αCD-added saline (SZ142 administration group), (6) OVA (5 μg) and SZ144 (0.256 μmol) dissolved or dispersed in 5% αCD-added saline (SZ144 administration group), (7) OVA (5 μg) and SZ145 (0.256 μmol) dissolved or dispersed in 5% αCD-added saline (SZ145 administration group), (8) OVA (5 μg) and SZ146 (0.256 μmol) dissolved or dispersed in 5% αCD-added saline (SZ146 administration group), (9) OVA (5 μg) and SZ147 (0.256 μmol) dissolved or dispersed in 5% αCD-added saline (SZ147 administration group), (10) OVA (5 μg) and SZ148 (0.256 μmol) dissolved or dispersed in 5% αCD-added saline (SZ148 administration group), each per mouse. Two week later, the secondary immunization was carried out by dorsal-subcutaneous administration of solutions or dispersions similar to those of the above-mentioned (1)-(10) again. Two weeks from the secondary immunization, the whole blood was extracted under anesthesia, and the obtained serum sample was measured for anti-OVA-specific IgG1 subclass antibody, anti-OVA-specific IgG2a subclass antibody, and anti-OVA-specific IgE antibody.
(§2) The measurement method of the anti-OVA-specific IgG1 subclass antibody and anti-OVA-specific IgG2a subclass antibody in Experimental Example 1 and the following Experimental Examples 2-10 is as follows.
(§3) To a 96 well plate was added 5 μg/ml OVA at 100 µl/well, and the mixture was incubated at 4° C. overnight. After incubation, the mixture was washed three times with 200 μl of PBS-T (PBS (phosphate buffered saline)+0.05% (v/v) Tween 20) per well, and blocked with 100 μl of 5% FCS (fetal calf serum)/PBS solution per well at room temperature for 1-2 hr. Thereafter, the mixture was washed three times with PBS-T (200 μl/well), a diluted serum sample (100 l/well) or the same amount of 5% FCS/PBS solution as a control was added, and the mixture was incubated at 37° C. for 1 hr. To calculate concentration of the antibody, the standard of an anti-OVA-specific IgG1 subclass antibody diluted with 2% FCS/PBS solution was added at 100 ng/ml, 50 ng/ml, 25 ng/ml, 12.5 ng/ml, 6.25 ng/ml, 3.125 ng/ml, 1.56 ng/ml, 0.781 ng/ml, 0.391 ng/ml, 0.195 ng/ml, 0.098 ng/ml, 0 ng/ml, per 1 well. When an anti-OVA-specific IgG2a subclass antibody was measured, the standard of an anti-OVA-specific IgG2a subclass antibody was added at 50 ng/ml, 25 ng/ml, 12.5 ng/ml, 6.25 ng/ml, 3.125 ng/ml, 1.56 ng/ml, 0.781 ng/ml, 0.391 ng/ml, 0.195 ng/ml, 0.098 ng/ml, 0.049 ng/ml, 0 ng/ml, per 1 well. Thereafter, similar to the samples, the mixture was washed five times with PBS-T (200 μl/well), a diluted biotinylated anti-mouse IgG1 antibody and IgG2a antibody were added (100 μl/well), and the mixture was incubated at 37° C. for 45 min. Thereafter, the mixture was washed five times with PBS-T (200 μl/well), a diluted anti-biotin-HRP antibody was added (100 μl/well), and the mixture was incubated at 37° C. for another 30 min. Thereafter, the mixture was washed five times with PBS-T (200 μl/well), TMB substrate solution was added (100 μl/well), and the mixture was incubated at room temperature for 10-15 min. Thereafter, a reaction quenching liquid (2N sulfuric acid solution) was added (50 l/well) to discontinue a color developing reaction, and the absorbance (OD Value=450 nm) was measured by a microplate reader. […]
(In general: In an ELISA, binding on a coated surface is turned into a signal by an enzyme label.)

Test [2] relates to anti-OVA-specific IgG1 subclass antibody. The test can be described thus: Adjuvant activity test: anti-OVA-specific IgG1 subclass antibody in serum of OVA-immunized mice (ELISA). In kind it is in vivo, BALB/c mice. To be noted: after secondary immunization, serum 2 weeks later; OVA 5 μg + compound 0.256 μmol in 5% αCD-added saline (Addavax mixed with saline at 1:1), dorsal-subcutaneous; compared to OVA single administration group. The procedure:
as §1, §2, §3

In the case of `CCCCCCCCCCCCCCCCCCCCCC(=O)N[C@@H](CCCCNC(C)=O)C(=O)NCCCCCCCCCCCC` [SZ167, N-[(1S)-5-acetamide-1-(dodecylcarbamoyl)pentyl]docosanamide], in test [1], the “anti-OVA-specific IgG2a subclass antibody production” value is “tended to increase”. Besides, the “anti-OVA-specific IgG1 subclass antibody production” value in test [2] was “tended to increase”.

On to `CCCCCCCCCCCCCCCCNC(=O)N[C@@H](CCCNC(=N)N)C(=O)NCCCCCC.Cl` [SZ168, (2S)-5-guanidino-2-(hexadecylcarbamoylamino)-N-hexyl-pentanamide hydrochloride], for which, in test [1], the “anti-OVA-specific IgG2a subclass antibody production” value is “tended to increase”. Also, in test [2], the “anti-OVA-specific IgG1 subclass antibody production” value is “tended to increase”.

Consider `CCCCCCCCCCCCCCCCOC(=O)N[C@@H](CCCNC(=N)N)C(=O)NCCCCCC.Cl` [SZ169, Hexadecyl N-[(1S)-4-guanidino-1-(hexylcarbamoyl)butyl]carbamate hydrochloride], for which the “anti-OVA-specific IgG2a subclass antibody production” value in test [1] is reported as “tended to increase”. Further, in test [2], the “anti-OVA-specific IgG1 subclass antibody production” value was “tended to increase”.

For `CCCCCCCCCCCCCCCCCCCCCC(=O)N[C@@H](CCCCNC(=N)N)C(=O)NCCCCCC.Cl` [SZ170, N-[(1S)-5-guanidino-1-(hexylcarbamoyl)pentyl]docosanamide hydrochloride], the “anti-OVA-specific IgG2a subclass antibody production” value in test [1] is listed as “tended to increase”. Moreover, the “anti-OVA-specific IgG1 subclass antibody production” value in test [2] is “tended to increase”.

Consider `CCCCCCCCCCCCCCCCCCCC(=O)N[C@@H](CCCNC(=N)N)C(=O)NCCCCCCCCCCCC.Cl` [SZ180, N-[(1S)-1-(dodecylcarbamoyl)-4-guanidino-butyl]icosanamide hydrochloride], for which the “anti-OVA-specific IgG2a subclass antibody production” value in test [1] is “significant enhancement”. Further, in test [2], the “anti-OVA-specific IgG1 subclass antibody production” value is recorded as “significant enhancement”.

Take `CCCCCCCCCCCCCCCC(=O)N[C@@H](CCCNC(=N)N)C(=O)NCCCCCCCC.Cl` [SZ181, N-[(1S)-4-guanidino-1-(octylcarbamoyl)butyl]hexadecanamide hydrochloride]: the “anti-OVA-specific IgG2a subclass antibody production” value in test [1] is “showed a tendency to increase”. In addition, the “anti-OVA-specific IgG1 subclass antibody production” value in test [2] was “showed a tendency to increase”.

For the compound `CCCCCCCCCCCCCCCCCC(=O)N[C@@H](CCCNC(=N)N)C(=O)NCCCCCCCC.Cl` [SZ182, N-[(1S)-4-guanidino-1-(octylcarbamoyl)butyl]octadecanamide hydrochloride], in test [1], the “anti-OVA-specific IgG2a subclass antibody production” value is “showed a tendency to increase”. In test [2], the “anti-OVA-specific IgG1 subclass antibody production” value is recorded as “showed a tendency to increase”.

Consider `CCCCCCCCCCCCCCCCCCCC(=O)N[C@@H](CCCNC(=N)N)C(=O)NCCCCCCCC.Cl` [SZ183, N-[(1S)-4-guanidino-1-(octylcarbamoyl)butyl]icosanamide hydrochloride], for which the “anti-OVA-specific IgG2a subclass antibody production” value in test [1] is recorded as “significant enhancement”. For the same compound, the “anti-OVA-specific IgG1 subclass antibody production” value in test [2] is on record as “significant enhancement”.

As to `CCCCCCCCCCCCCCCCCC(=O)N[C@@H](CCCCN)C(=O)NCCCCCCCC.Cl` [SZ184, N-[(1S)-5-amino-1-(octylcarbamoyl)pentyl]octadecanamide hydrochloride], the “anti-OVA-specific IgG2a subclass antibody production” value in test [1] is given as “showed a tendency to increase”. Further, the “anti-OVA-specific IgG1 subclass antibody production” value in test [2] is listed as “showed a tendency to increase”.

`CCCCCCCCCCCCCCCCCC(=O)N[C@@H](CCCCN)C(=O)NCCCCCCCCCCCC.Cl` [SZ185, N-[(1S)-5-amino-1-(dodecylcarbamoyl)pentyl]octadecanamide hydrochloride]: in test [1], the “anti-OVA-specific IgG2a subclass antibody production” value is “significant enhancement”. In addition, the “anti-OVA-specific IgG1 subclass antibody production” value in test [2] is “significant enhancement”.

Regarding `CCCCCCCCCCCCNC(=O)[C@H](CCCNC(=N)N)NC(=O)OCCCCCCCCCCCC.Cl` [SZ187, dodecyl N-[(1S)-1-(dodecylcarbamoyl)-4-guanidino-butyl]carbamate hydrochloride], the “anti-OVA-specific IgG2a subclass antibody production” value in test [1] was “significant enhancement”. In test [2], the “anti-OVA-specific IgG1 subclass antibody production” value is given as “showed a tendency to increase”.

For `CCCCCCCCCCCCCCCCOC(=O)N[C@@H](CCCCN)C(=O)NCCCCCCCC.Cl` [SZ188, hexadecyl N-[(1S)-5-amino-1-(octylcarbamoyl)pentyl]carbamate hydrochloride], the “anti-OVA-specific IgG2a subclass antibody production” value in test [1] is “showed a tendency to increase”. Also, in test [2], the “anti-OVA-specific IgG1 subclass antibody production” value is reported as “showed a tendency to increase”.

`CCCCCCCCCCCCCCCCOC(=O)N[C@@H](CCCCN)C(=O)NCCCCCCCCCCCC.Cl` [SZ189, hexadecyl N-[(1S)-5-amino-1-(dodecylcarbamoyl)pentyl]carbamate hydrochloride]: the “anti-OVA-specific IgG2a subclass antibody production” value in test [1] is given as “significant enhancement”. In test [2], the “anti-OVA-specific IgG1 subclass antibody production” value is “significant enhancement”.

With `CCCCCCCCCCCCCCCCNC(=O)NCCCCNC(=N)N.Cl` [SZ190, 1-(4-guanidinobutyl)-3-hexadecyl-urea hydrochloride], in test [1], the “anti-OVA-specific IgG2a subclass antibody production” value is “showed a tendency to increase”. In addition, in test [2], the “anti-OVA-specific IgG1 subclass antibody production” value is “showed a tendency to increase”.

Consider `CCCCCCCCCCCCCCCCCC(=O)N[C@H](CCCNC(=N)N)C(=O)NCCCCCCCCCCCC.Cl` [SZ191, N-[(1R)-1-(dodecylcarbamoyl)-4-guanidino-butyl]octadecanamide hydrochloride], for which the “anti-OVA-specific IgG2a subclass antibody production” value in test [1] is on record as “significant enhancement”. In addition, the “anti-OVA-specific IgG1 subclass antibody production” value in test [2] is listed as “significant enhancement”.

On to `CCCCCCCCCCCCCCCCNC(=O)N[C@H](CCCNC(=N)N)C(=O)NCCCCCCCCCCCC.Cl` [SZ193, (2R)—N-dodecyl-5-guanidino-2-(hexadecylcarbamoylamino)pentanamide hydrochloride], for which the “anti-OVA-specific IgG2a subclass antibody production” value in test [1] is listed as “showed a tendency to increase”. Also, the “anti-OVA-specific IgG1 subclass antibody production” value in test [2] is “showed a tendency to increase”.

For the compound `CCCCCCCCCCCCCCCC(=O)N[C@H](CCCCN)C(=O)NCCCCCCCCCCCC.Cl` [SZ194, N-[(1R)-5-amino-1-(dodecylcarbamoyl)pentyl]hexadecanamide hydrochloride], in test [1], the “anti-OVA-specific IgG2a subclass antibody production” value is listed as “showed a tendency to increase”. Moreover, the “anti-OVA-specific IgG1 subclass antibody production” value in test [2] is listed as “showed a tendency to increase”.

As to `CCCCCCCCCCCCCCCCCC(=O)N[C@@H](CC(C)C)C(=O)NCCCCCCCCCCCC` [SZ195, N-[(1S)-1-(dodecylcarbamoyl)-3-methyl-butyl]octadecanamide], the “anti-OVA-specific IgG2a subclass antibody production” value in test [1] was “tended to increase”. Also, the “anti-OVA-specific IgG1 subclass antibody production” value in test [2] is “tended to increase”.

With `CCCCCCCCCCCCCCCCCC(=O)N[C@@H](CC(C)C)C(=O)NCCCCCCCC` [SZ196, N-[(1S)-3-methyl-1-(octylcarbamoyl)butyl]octadecanamide], the “anti-OVA-specific IgG2a subclass antibody production” value in test [1] is given as “tended to increase”. Also, the “anti-OVA-specific IgG1 subclass antibody production” value in test [2] was “significant enhancement”.
